Assay results as given in patent publication US20120083464A1, “NEUROPROTECTIVE PROPERTIES OF 5'-METHYLTHIOADENOSINE” (priority 2009, published 2012).
“Also recorded” adds a separate entry of the source.

Legend:
isolated optic nerve = assay: Simulated ischemia (OGD) in isolated optic nerves, LDH release; design: species or system Sprague Dawley rats; details: 1 h ischemia with iodoacetate + 2 h reperfusion; MTA 100-300 μM
Procedure: Ischemic damage was induced by substituting […] and adding 1 mM of the glyocolytic blocker iodoacetate (1 mM) for 1 h followed by 2 h of reperfusion in […] aCSF. Optic nerves during ischemia and reperfusion were incubated with vehicle, for controls, and with MTA or glutamate receptor antagonists, and subsequently processed for LDH release assay. The results are the mean±SEM of at least three different experiments performed in duplicate.
Cell viability in oligodendrocyte cultures was assayed after 24 h of exposure to MTA (1 μM to 3 mM) calcein-AM assays respectively followed by fluorimetry measurements (Synergy-HT). Oligodendrocyte protection from excitotoxicity and optic nerve damage after ischemia (1 hour+2 hours reperfusion) were examined using lactate dehydrogenase release assays in the presence or absence of MTA (100-300 μM for 3 hours).

caspase 3 activity = assay: NMDA-mediated increase in caspase 3 activity in mixed neuronal-glial culture; format: cell-based, Sprague-Dawley rat; details: NMDA 300 μM, MTA 250 μM or MK-801 10 μM
Procedure: Primary cultures of brain cortical neurons and glia were essentially prepared as described previously (Bruno et al., 2001, Eur. J. Neurosci., 13:1469-1478). The fronto-lateral cortical lobes were dissected out of Sprague-Dawley embryonic day 17 foetuses and were mechanically dissociated in Hanks' balanced solution. The cortical lobes were triturated by aspirating 7-10 times using a Pasteur pipette with a flame-narrowed tip. […]
Cortical neurons or mixed cortical neurons and glia were plated on poly-L-lysine-coated 6-well culture plates and after 7 DIV, cells were treated with vehicle or NMDA (300 μM) for different periods of time. […] Extracts were then centrifuged at 5,000×g for 10 min at 4° C., and protein content was determined by using the BCA protein assay according to the manufacturer instructions. Cell extracts (40 μg of protein) were incubated in reaction buffer (25 mM Hepes, 10% sucrose, 0.1% CHAPS, 10 mM DTT) containing 50 μM fluorescence substrate Z-DEVD-AFC at 37° C. for 1 h. Cleavage of the AFC fluorophore was determined in a spectrofluorometer at excitation wavelength of 400 nm and fluorescence was detected at an emission wavelength of 505 nm. Caspase 3 activity was expressed as units of fluorescence/mg of protein/h (Posadas et al., 2009, Pharm. Res., In press).

SMILES | OGD/ischemia-induced damage in isolated optic nerve (LDH release) (isolated optic nerve) | protection against NMDA-induced caspase 3 activity (caspase 3 activity)
N[C@H](CCCP(=O)(O)O)C(=O)O [APV, (2R)-amino-5-phosphonovaleric acid] | reduced; also recorded: attenuated | –
N#Cc1cc2c(cc1[N+](=O)[O-])=NC(=O)C(=O)N=2 [CNQX, 6-cyano-7-nitro-quinoxaline-2,3-dione] | reduced; also recorded: attenuated | –
C[C@]12N[C@H](Cc3ccccc31)c1ccccc12 [MK-801, reference compound] | – | neuroprotective action
